The target in series [1] is Excitatory amino acid transporter 1 (Homo sapiens, UniProt P43003). Nature of the series: Binding affinity for Excitatory amino acid transporter 1 (EAAT-1) in Glu uptake system.
Series [2] deals with Excitatory amino acid transporter 2 (Homo sapiens, UniProt P43004). Kind of series: Binding affinity for Excitatory amino acid transporter 2 (EAAT-2) in Glu uptake system.
In series [3] the target is T1, Excitatory amino acid transporter 3 (Homo sapiens, UniProt P43005).
T1 sequence (P43005 whole entry): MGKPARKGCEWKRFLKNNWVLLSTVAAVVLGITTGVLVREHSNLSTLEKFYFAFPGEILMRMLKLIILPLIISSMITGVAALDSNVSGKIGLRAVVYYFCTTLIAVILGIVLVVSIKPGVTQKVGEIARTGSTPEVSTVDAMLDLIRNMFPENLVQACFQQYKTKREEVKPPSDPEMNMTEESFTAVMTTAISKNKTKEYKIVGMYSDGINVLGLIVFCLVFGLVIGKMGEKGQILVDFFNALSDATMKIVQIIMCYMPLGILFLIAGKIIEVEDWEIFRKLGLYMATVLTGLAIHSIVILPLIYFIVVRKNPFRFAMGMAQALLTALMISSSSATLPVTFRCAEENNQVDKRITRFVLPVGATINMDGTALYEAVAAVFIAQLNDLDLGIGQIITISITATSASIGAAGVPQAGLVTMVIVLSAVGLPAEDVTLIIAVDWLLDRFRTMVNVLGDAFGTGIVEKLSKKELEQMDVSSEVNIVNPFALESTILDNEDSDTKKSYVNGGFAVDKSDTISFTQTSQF
Nature of the series: Binding affinity for Excitatory amino acid transporter 3 (EAAT-3) in Glu uptake system.

Series [4] is described as follows: Measure of synaptosomal Glu uptake system using [3H]- -D-aspartic acid as radioligand.
For series [5], the target named is Glutamate receptor ionotropic, kainate. Kind of series: Binding affinity for Ionotropic glutamate receptor using [3H]- kainic acid. In kind it is protein-complex assay, Rattus norvegicus.
Series [6] addresses Glutamate NMDA receptor. Nature of the series: Binding affinity for N-methyl-D-aspartate glutamate receptor (NMDA) using [3H]- CPP. In kind it is protein-complex assay, Rattus norvegicus.
The species entered for series [7] is Rattus norvegicus. Nature of the series: EC50 value was measured in rat cortical wedge preparation. It is filed as functional.
The target in series [8] is Glutamate receptor ionotropic, AMPA (Rattus norvegicus, UniProt P19490+P19491+P19492+P19493).
A short description of series [9]: physchem.
The nature of series [10]: physchem. The source holds these as a separate data set.
Series [11] in a line: physchem. This is another data set of the same source.
Series [12] is described as follows: Measure of synaptosomal Glu uptake system using [3H]- -D-aspartic acid as radioligand. In kind it is functional.

Sequence of Excitatory amino acid transporter 2 (P43004 whole entry): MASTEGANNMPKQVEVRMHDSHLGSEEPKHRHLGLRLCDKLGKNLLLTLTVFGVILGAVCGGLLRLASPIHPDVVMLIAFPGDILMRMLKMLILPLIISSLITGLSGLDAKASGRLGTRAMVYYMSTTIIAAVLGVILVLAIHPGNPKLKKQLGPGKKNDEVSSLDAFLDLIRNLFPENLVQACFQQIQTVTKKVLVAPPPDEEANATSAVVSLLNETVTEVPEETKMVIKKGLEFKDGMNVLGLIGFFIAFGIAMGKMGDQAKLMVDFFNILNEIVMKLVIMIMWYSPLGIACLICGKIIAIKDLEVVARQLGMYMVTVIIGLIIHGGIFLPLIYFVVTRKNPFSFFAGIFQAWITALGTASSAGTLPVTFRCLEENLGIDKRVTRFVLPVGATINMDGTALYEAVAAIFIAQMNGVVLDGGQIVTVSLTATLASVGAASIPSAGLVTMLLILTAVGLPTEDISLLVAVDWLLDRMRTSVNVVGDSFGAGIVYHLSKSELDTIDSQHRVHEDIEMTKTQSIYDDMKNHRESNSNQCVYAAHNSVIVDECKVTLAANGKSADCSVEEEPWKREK
Sequence of Excitatory amino acid transporter 1 (P43003 whole entry): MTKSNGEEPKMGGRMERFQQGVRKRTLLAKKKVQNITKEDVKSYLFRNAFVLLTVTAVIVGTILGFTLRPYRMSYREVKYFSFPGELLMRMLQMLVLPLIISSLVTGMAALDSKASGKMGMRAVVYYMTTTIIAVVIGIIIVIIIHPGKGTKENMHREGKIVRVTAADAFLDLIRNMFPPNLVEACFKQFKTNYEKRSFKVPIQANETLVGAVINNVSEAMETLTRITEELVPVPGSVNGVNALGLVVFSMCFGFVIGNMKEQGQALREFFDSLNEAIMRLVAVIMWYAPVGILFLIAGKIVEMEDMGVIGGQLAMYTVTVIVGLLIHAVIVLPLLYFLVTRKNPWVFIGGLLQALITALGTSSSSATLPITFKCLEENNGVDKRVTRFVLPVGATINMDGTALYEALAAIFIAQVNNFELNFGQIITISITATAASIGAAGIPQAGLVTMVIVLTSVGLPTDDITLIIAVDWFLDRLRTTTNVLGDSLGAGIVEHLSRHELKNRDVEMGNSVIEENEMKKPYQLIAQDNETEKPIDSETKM

A word on the IC50: it is the point on the concentration scale where inhibition reaches its midpoint. The EC50 is the concentration needed to bring the measured effect to its halfway point. A low value points to an effect from little substance. As to `NC(Cc1cncn1O)C(=O)O` (stereo not drawn), the half-maximal inhibitory concentration (IC50) in series [1] was greater than 1000 µM; in [2], greater than 1000 µM; in series [3] it was greater than 1000 µM; in [4], greater than 200 µM; in series [5], greater than 100 µM; in series [6] it was greater than 100 µM. Besides, the IC50 in series [8] is greater than 100 µM. The molecule also had an EC50 in series [7] greater than 1000 µM.
As to `Cc1cnc(CC(N)C(=O)O)n1O` (stereo not drawn), the IC50 in series [1] is greater than 1000 µM; in [2], greater than 1000 µM; in series [3], greater than 1000 µM; in series [4], greater than 200 µM; in series [5] it was greater than 100 µM; in series [6] it was greater than 100 µM. The molecule further displayed a half-inhibitory concentration (IC50) in series [8] greater than 100 µM. Further, the concentration giving a half-maximal response (EC50) in [7] is greater than 1000 µM.
Take `Cc1ncc(CC(N)C(=O)O)n1O` (stereo not drawn): the IC50 in series [1] is greater than 1000 µM; in series [2] it was greater than 1000 µM; in series [3], greater than 1000 µM; in [4] it was greater than 200 µM; in [5] it was greater than 100 µM; in [6] it was greater than 100 µM. In series [8], this molecule gave an IC50 greater than 100 µM. In addition, the EC50 in series [7] was greater than 1000 µM.
With `NC(Cc1nccn1O)C(=O)O` (stereo not drawn), the half-inhibitory concentration (IC50) was greater than 1000 µM in [1]; greater than 1000 µM in [2]; greater than 1000 µM in [3]; greater than 200 µM in series [4]; greater than 100 µM in series [5]; greater than 100 µM in [6]. This molecule also registered an IC50 in series [8] greater than 100 µM. In series [7], this molecule gave a 50% effective concentration (EC50) greater than 1000 µM.
By pKa is commonly meant the pH at which an ionisable group is half protonated. A high value points to a weaker acid or stronger base. As for `Cc1nnn(O)c1CC(N)C(=O)O` (stereo not drawn), the concentration for half-maximal inhibition (IC50) in series [1] is greater than 1000 µM; in series [2], 490 µM; in series [3], greater than 1000 µM; in series [4], greater than 200 µM; in series [5], 90 µM; in [6], greater than 100 µM. This molecule also had an IC50 in series [8] of 0.13 µM. Further, it took 15 µM to reach a half-maximal effect in series [7] (EC50). Besides, the pKa in series [9] was found to be 9.24; in series [10], 5.07; in [11], 1.48.
Turning to `Cc1cnn(O)c1CC(N)C(=O)O` (stereo not drawn), the IC50 in series [1] is greater than 1000 µM; in series [2], greater than 1000 µM; in series [3], greater than 1000 µM; in series [4], greater than 200 µM; in series [5] it was greater than 100 µM; in series [6] it was greater than 100 µM. The molecule further came in with an IC50 in series [8] of 2.6 µM. The EC50 in series [7] came out at 586 µM. Besides, the values for the pKa in series [9], in [10] and in series [11] were 9.81, 5.89 and 2.05, respectively.
As to `NC(Cc1conc1O)C(=O)O` (stereo not drawn), the IC50 was 270 µM in [1]; 240 µM in series [2]; greater than 1000 µM in series [3]; greater than 200 µM in series [4]; greater than 100 µM in [5]; greater than 100 µM in [6]. In series [8], this molecule yielded a half-maximal inhibitory concentration (IC50) of 0.27 µM. Also, a half-maximal response in series [7] (EC50) required 900 µM.
`NC(Cc1ccnn1O)C(=O)O` (stereo not drawn): the IC50 in series [1] is greater than 1000 µM; in series [2] it was 430 µM; in [3], greater than 1000 µM; in series [4], greater than 200 µM; in [5], greater than 100 µM; in [6], greater than 100 µM. The molecule also registered a half-inhibitory concentration (IC50) in series [8] of 2.7 µM. Also, the EC50 in series [7] was 280 µM. The pKa came to 9.48 in series [9], 5.78 in [10] and 1.78 in series [11].
For the molecule `NC(Cc1cnnn1O)C(=O)O` (stereo not drawn), the IC50 in [1] was 100 µM; in series [2], 300 µM; in series [3], greater than 1000 µM; in [4] it was 93 µM; in series [5], 47 µM; in series [6] it was greater than 100 µM. The molecule also came in with a half-maximal inhibitory concentration (IC50) in [8] of 0.15 µM. Moreover, in series [7], the EC50 was greater than 1000 µM.
Regarding `Cc1ncn(O)c1CC(N)C(=O)O` (stereo not drawn), the half-inhibitory concentration (IC50) in [1] is greater than 1000 µM; in series [2], greater than 1000 µM; in series [3], greater than 1000 µM; in series [4], greater than 200 µM; in series [5], greater than 100 µM; in [6], greater than 100 µM. The 50% inhibitory concentration (IC50) in series [8] was greater than 100 µM. Also, the half-maximal effective concentration (EC50) in [7] was greater than 1000 µM. Besides, the pKa in series [9] is 10.2; in [10], 8.82; in series [11], 2.81.
For `Cc1onc(O)c1CC(N)C(=O)O` [(R,S)-AMPA], the IC50 is greater than 1000 µM in [1], greater than 1000 µM in [2], greater than 1000 µM in series [3] and greater than 200 µM in series [12]. Also, the pKa worked out at 5.12 in series [10] and 1.94 in series [11].

For the origin of these results see ChEMBL document CHEMBL1135397, “Novel 1-hydroxyazole bioisosteres of glutamic acid. Synthesis, protolytic properties, and pharmacology” (J Med Chem, 2002).
